{"source": "patent US20040180817A1", "about": "“Neuropathologies associated with expression of tnf-$g (a)” (priority 2001, published 2004)", "key": {"[1]": {"tested_on": "blood-cerebrospinal fluid barrier and blood-brain barrier", "test": "Contrast-enhanced T1-weighted MRI of B-CSF-B / BBB permeability", "assay_type": "in vivo, rat", "method": "(§1) Adult male Wistar rats (Harlan-Olac, UK) were anaesthetised with fentanyl/fluanisone and midazolam (0.68 ml/kg of each). Using a 50 μm-tipped glass pipette, 1 μl rat recombinant TNF-α (NIBSC, Potters Bar, UK) solution was injected stereotaxically 1 mm anterior and 3 mm lateral to Bregma, at a depth of 4 mm into the left striatum. Animals were injected with either 0.3 μg/μl or 1.5 μg/μl of TNF-A, each in 0.1% BSA in low-endotoxin saline, or with vehicle solution only. Animals were positioned in the MRI probe (3.4 cm i.d. Alderman-Grant resonator) using a bite-bar. During MRI, anaesthesia was maintained with 0.8-1.2% halothane in 50% N2O/50% O2, ECG was monitored non-invasively and body temperature was maintained at […]. All procedures were approved by the United Kingdom Home Office.\nMagnetic resonance images were acquired using a 300 MHz Varian Inova spectrometer (Varian, Palo Alto, Calif.). Anatomical images were acquired using a T2-weighted sequence (repetition time, TR, 3 sec; echo time, TE, 80 msec). […] Diffusion gradients were applied separately along three orthogonal axes and apparent diffusion coefficient (ADC) “trace” maps were calculated^40. […]"}, "[2]": {"tested_on": "rrTNF-α-induced reduction in striatal rCBV", "test": "Effect of ET receptor antagonist on rrTNF-α-induced acute rCBV reduction (MRI)", "assay_type": "in vivo, rat", "settings": "5 mg/kg i.v. 10 min prior to 1.5 μg intrastriatal rrTNF-α; 1.5 h", "method": "as §1\n(§2) Magnetic resonance images were acquired using a 300 MHz Varian Inova spectrometer (Varian, Palo Alto, Calif.). […] Diffusion gradients were applied separately along three orthogonal axes and apparent diffusion coefficient (ADC) “trace” maps were calculated^40. […]\n(§3) Regions of Interest (ROI) encompassing the striatum were defined on T2-weighted images in each hemisphere, and applied to all images or calculated data maps for quantitation. For the rCBV maps and T2-weighted images the data are expressed as a ratio of injected/non-injected striatal values. […]"}, "[3]": {"tested_on": "rat brain striatum (tissue water diffusion)", "test": "Diffusion weighted MRI: apparent diffusion coefficient (ADC) of tissue water in striatum", "assay_type": "in vivo", "settings": "24 h", "method": "as §1, §2, §3"}}, "note": "Entries after “also recorded” stand apart in the source; their conditions may differ.", "data": [{"smiles": "COc1cccc(Oc2c(NS(=O)(=O)c3ccc(C(C)(C)C)cc3)ncnc2OCCO)c1", "note": "[Ro 46-2005]", "values": [{"measurement": "BBB breakdown: increase in signal intensity of injected striatum", "setting": "[1]; Ro 46-2005 pre-treatment + 1.5 g TNF-α (so in the source), 24 h", "result": "10.3±2.7", "unit": "%"}, {"measurement": "effect of pre-treatment on TNF-α-induced B-CSF-B breakdown", "setting": "[1]; pre-treatment before TNF-α, 1.5 h", "result": "did not significantly alter"}, {"measurement": "effect on rrTNF-α-induced reduction in striatal rCBV", "setting": "[2]", "result": "No significant differences; also recorded: eliminated"}, {"measurement": "Apparent Diffusion Coefficient, Right (control) striatum", "setting": "[3]; Ro 46-2005 i.v. pre-treatment + 1.5 μg rrTNF-α intrastriatal (left)", "result": "7.23 ± 0.17 ×10^−4 mm^2/sec"}, {"measurement": "effect of pre-treatment on TNF-α-induced reduction in ADC", "setting": "[3]; pre-treatment before 1.5 μg rrTNF-α", "result": "not affected"}]}]}
